{
  "source": "ChEMBL document CHEMBL1142207",
  "about": "“Aspirin antagonism in isoniazid treatment of tuberculosis in mice” (2007)",
  "key": {"[1]": {"tested_on": "Mycobacterium tuberculosis", "test": "Clearance of Mycobacterium tuberculosis H37Rv in BALB/c mouse lung at 25 mg/kg, po five times/week after 1 month relative to control", "type": "functional, organism-based", "parameters": "dose 25 mg/kg"}, "[2]": {"tested_on": "Mycobacterium tuberculosis", "test": "Clearance of Mycobacterium tuberculosis H37Rv in BALB/c mouse spleen at 25 mg/kg, po five times/week after 1 month relative to control", "type": "functional, organism-based", "parameters": "dose 25 mg/kg"}, "[3]": {"tested_on": "Mycobacterium tuberculosis", "test": "Decrease in spleen infection of BALB/c mouse infected with Mycobacterium tuberculosis H37Rv at 40 mg/kg, po five times/week after 1 month relative to control", "type": "functional"}, "[4]": {"tested_on": "Mycobacterium tuberculosis", "test": "Decrease in spleen infection of BALB/c mouse infected with Mycobacterium tuberculosis H37Rv at 10 mg/kg, po five times/week after 1 month relative to control", "type": "functional"}, "[5]": {"tested_on": "Mycobacterium tuberculosis", "test": "Decrease in spleen infection of BALB/c mouse infected with Mycobacterium tuberculosis H37Rv at 20 mg/kg, po five times/week after 1 month relative to control", "type": "functional"}},
  "note": "Calls of active or inactive are those of the source. The calls are words filed in the database; no cut-off is given here.",
  "data": [
    {"smiles": "NNC(=O)c1ccncc1", "values": [
      {"measurement": "Activity", "setting": "[1]", "value": "Active"},
      {"measurement": "Activity", "setting": "[2]", "value": "Active"}
    ]},
    {"smiles": "CC(=O)Oc1ccccc1C(=O)O", "note": "[ASPIRIN]", "values": [
      {"measurement": "Log10 cfu", "setting": "[3]", "value": 4.38},
      {"measurement": "Log10 cfu", "setting": "[4]", "value": 3.48},
      {"measurement": "Log10 cfu", "setting": "[5]", "value": 4.55}
    ]}
  ]
}
